Values after ≈ are worked out from the molar mass of the structure shown. Where two headings read alike, the source gives them in different places.
What was measured:
Assay type in all cases: cell-based
[1] = system: Enterobacter aerogenes UR76-3; test: In vitro MIC, agar dilution, Enterobacter aerogenes UR76-3; conditions: Klebsiella aerogenes, read-out: Minimal Inhibitory Concentration
Procedure: (§1) The in vitro activity of representative compounds of the present invention are given in the following Table I in terms of minimal inhibitory concentration. The test used was the standard agar dilution test using a Steers multiple inocula replicator and incubating at 35° C. for 18 hours in conventional nutrient agar.

[2] = system: Klebsiella pneumoniae MA75-1; test: In vitro MIC, agar dilution, Klebsiella pneumoniae MA75-1; conditions: read-out: Minimal Inhibitory Concentration
Procedure: as §1

Escherichia coli W75-1 = test: In vitro MIC, agar dilution, Escherichia coli W75-1; conditions: W751, 35° C., 18 hours, nutrient agar, read-out: Minimal Inhibitory Concentration
Procedure: as §1

Proteus rettgeri N76-1 = test: In vitro MIC, agar dilution, Proteus rettgeri N76-1; conditions: Providencia rettgeri, read-out: Minimal Inhibitory Concentration
Procedure: as §1

[3] = system: Staphylococcus aureus Q74-6; test: In vitro MIC, agar dilution, Staphylococcus aureus Q74-6; conditions: read-out: Minimal Inhibitory Concentration
Procedure: as §1

[4] = system: Escherichia coli ESS22-31; test: In vitro MIC, agar dilution, Escherichia coli ESS22-31; conditions: read-out: Minimal Inhibitory Concentration
Procedure: as §1

Proteus vulgaris N74-1 = test: In vitro MIC, agar dilution, Proteus vulgaris N74-1; conditions: N741, 35° C., 18 hours, nutrient agar, read-out: Minimal Inhibitory Concentration
Procedure: as §1

[5] = system: Klebsiella pneumoniae W75-2; test: In vitro MIC, agar dilution, Klebsiella pneumoniae W75-2; conditions: read-out: Minimal Inhibitory Concentration
Procedure: as §1

[6] = system: Klebsiella pneumoniae UR76-1; test: In vitro MIC, agar dilution, Klebsiella pneumoniae UR76-1; conditions: read-out: Minimal Inhibitory Concentration
Procedure: as §1

Escherichia coli 311 = test: In vitro MIC, agar dilution, Escherichia coli 311; conditions: 35° C., 18 hours, nutrient agar, read-out: Minimal Inhibitory Concentration
Procedure: as §1

[7] = system: Klebsiella pneumoniae W75-4; test: In vitro MIC, agar dilution, Klebsiella pneumoniae W75-4; conditions: read-out: Minimal Inhibitory Concentration
Procedure: as §1

[8] = system: Pseudomonas aeruginosa UCS 76-13; test: In vitro MIC, agar dilution, Pseudomonas aeruginosa UCS 76-13; conditions: read-out: Minimal Inhibitory Concentration
Procedure: as §1

Klebsiella pneumoniae AD = test: In vitro MIC, agar dilution, Klebsiella pneumoniae AD; conditions: read-out: Minimal Inhibitory Concentration
Procedure: as §1

Serratia K101 = test: In vitro MIC, agar dilution, Serratia K101; conditions: read-out: Minimal Inhibitory Concentration
Procedure: as §1

[9] = system: Enterobacter cloacae OSU75-2; test: In vitro MIC, agar dilution, Enterobacter cloacae OSU75-2; conditions: read-out: Minimal Inhibitory Concentration
Procedure: as §1

Serratia marcens K77-1 = test: In vitro MIC, agar dilution, Serratia marcens K77-1; conditions: read-out: Minimal Inhibitory Concentration
Procedure: as §1

[10] = system: Pseudomonas aeruginosa G236; test: In vitro MIC, agar dilution, Pseudomonas aeruginosa G236; conditions: read-out: Minimal Inhibitory Concentration
Procedure: as §1

Enterococcus SM77-15 = test: In vitro MIC, agar dilution, Enterococcus SM77-15; conditions: read-out: Minimal Inhibitory Concentration
Procedure: as §1

[11] = system: Pseudomonas aeruginosa 12-4-4; test: In vitro MIC, agar dilution, Pseudomonas aeruginosa 12-4-4; conditions: read-out: Minimal Inhibitory Concentration
Procedure: as §1

[12] = system: Pseudomonas aeruginosa PD05141; test: In vitro MIC, agar dilution, Pseudomonas aeruginosa PD05141; conditions: read-out: Minimal Inhibitory Concentration
Procedure: as §1

[13] = system: Enterobacter cloacae MA75-1; test: In vitro MIC, agar dilution, Enterobacter cloacae MA75-1; conditions: read-out: Minimal Inhibitory Concentration
Procedure: as §1

Proteus morganii K72 = test: In vitro MIC, agar dilution, Proteus morganii K72; conditions: Morganella morganii, read-out: Minimal Inhibitory Concentration
Procedure: as §1

[14] = system: Staphylococcus aureus Q74-1; test: In vitro MIC, agar dilution, Staphylococcus aureus Q74-1; conditions: read-out: Minimal Inhibitory Concentration
Procedure: as §1

Escherichia coli OSU75-1 = test: In vitro MIC, agar dilution, Escherichia coli OSU75-1; conditions: OSU751, 35° C., 18 hours, nutrient agar, read-out: Minimal Inhibitory Concentration
Procedure: as §1

Serratia marcens QHC77-2 = test: In vitro MIC, agar dilution, Serratia marcens QHC77-2; conditions: read-out: Minimal Inhibitory Concentration
Procedure: as §1

[15] = UR763, Enterobacter aerogenes UR76-3, agar dilution, 35° C., 18 hours, nutrient agar
[16] = MA751, Klebsiella pneumoniae MA75-1, agar dilution, 35° C., 18 hours, nutrient agar
[17] = N761, Proteus rettgeri N76-1, agar dilution, 35° C., 18 hours, nutrient agar
[18] = Q746, Staphylococcus aureus Q74-6, agar dilution, 35° C., 18 hours, nutrient agar
[19] = Escherichia coli, ESS2231, 18 h
[20] = W752, Klebsiella pneumoniae W75-2, agar dilution, 35° C., 18 hours, nutrient agar
[21] = UR761, Klebsiella pneumoniae UR76-1, agar dilution, 35° C., 18 hours, nutrient agar
[22] = W754, Klebsiella pneumoniae W75-4, agar dilution, 35° C., 18 hours, nutrient agar
[23] = UCS7613, Pseudomonas aeruginosa UCS 76-13, agar dilution, 35° C., 18 hours, nutrient agar
[24] = Klebsiella pneumoniae AD, agar dilution, 35° C., 18 hours, nutrient agar
[25] = Serratia K101, agar dilution, 35° C., 18 hours, nutrient agar
[26] = OSU752, Enterobacter cloacae OSU75-2, agar dilution, 35° C., 18 hours, nutrient agar
[27] = K771, Serratia marcens K77-1, agar dilution, 35° C., 18 hours, nutrient agar
[28] = SM7715, Enterococcus SM77-15, agar dilution, 35° C., 18 hours, nutrient agar
[29] = 1244, Pseudomonas aeruginosa 12-4-4, agar dilution, 35° C., 18 hours, nutrient agar
[30] = Pseudomonas aeruginosa PD05141, agar dilution, 35° C., 18 hours, nutrient agar
[31] = MA751, Enterobacter cloacae MA75-1, agar dilution, 35° C., 18 hours, nutrient agar
[32] = Proteus morganii K72, agar dilution, 35° C., 18 hours, nutrient agar
[33] = Q741, Staphylococcus aureus Q74-1, agar dilution, 35° C., 18 hours, nutrient agar
[34] = QHC772, Serratia marcens QHC77-2, agar dilution, 35° C., 18 hours, nutrient agar
[35] = Pseudomonas aeruginosa, G236, 18 h

## N[C@@H](C(=O)NC1C(=O)N2C(C(=O)O)=C(CSc3n[nH]c(-n4cccn4)n3)CS[C@H]12)c1ccccc1.O=C(O)C(F)(F)F (stereo partly drawn) [Compound IX, 7-(D-2-Amino-2-phenylacetamido)-3-[5-(1-pyrazolyl)-1,2,4-triazol-3-ylthiomethyl]-3-cephem-4-carboxylic acid, trifluoroacetate salt]
[1]; [15]
  MIC: 16 µg/mL
[2]; [16]
  MIC: 16 µg/mL
Escherichia coli W75-1
  MIC: 16 µg/mL
Proteus rettgeri N76-1; [17]
  MIC: > 128 µg/mL
[3]; [18]
  MIC: 1 µg/mL
[4]; [19]
  MIC: ≤ 0.12 µg/mL
Proteus vulgaris N74-1
  MIC: > 128 µg/mL
[5]; [20]
  MIC: 32 µg/mL
[6]; [21]
  MIC: > 128 µg/mL
Escherichia coli 311
  MIC: 16 µg/mL
[7]; [22]
  MIC: 32 µg/mL
[8]; [23]
  MIC: > 128 µg/mL
Klebsiella pneumoniae AD; [24]
  MIC: 8 µg/mL
Serratia K101; [25]
  MIC: > 128 µg/mL
[9]; [26]
  MIC: > 128 µg/mL
Serratia marcens K77-1; [27]
  MIC: > 128 µg/mL
[10]; Pseudomonas aeruginosa G236, agar dilution, 35° C., 18 hours, nutrient agar
  MIC: > 128 µg/mL
Enterococcus SM77-15; [28]
  MIC: > 128 µg/mL
[11]; [29]
  MIC: > 128 µg/mL
[12]; [30]
  MIC: > 128 µg/mL
[13]; [31]
  MIC: > 128 µg/mL
Proteus morganii K72; [32]
  MIC: > 128 µg/mL
[14]; [33]
  MIC: 4 µg/mL
Escherichia coli OSU75-1
  MIC: 16 µg/mL
Serratia marcens QHC77-2; [34]
  MIC: > 128 µg/mL

## CC(=O)OCC1=C(C(=O)O)N2C(=O)[C@@H](NC(=O)Cc3cccs3)[C@H]2SC1 [Compound X, Cephalothin, reference compound]
[1]; UR763, 18 h
  MIC: 2 µg/mL (≈ 5.04 µM)
[2]; Klebsiella pneumoniae, MA751, 18 h
  MIC: 1 µg/mL (≈ 2.52 µM)
Escherichia coli W75-1
  MIC: 8 µg/mL (≈ 20.2 µM)
Proteus rettgeri N76-1; N761, 18 h
  MIC: > 128 µg/mL
[3]; Staphylococcus aureus, Q746, 18 h
  MIC: 0.12 µg/mL (≈ 0.303 µM)
[4]; [19]
  MIC: ≤ 0.06 µg/mL
[5]; Klebsiella pneumoniae, W752, 18 h
  MIC: 2 µg/mL (≈ 5.04 µM)
[6]; Klebsiella pneumoniae, UR761, 18 h
  MIC: 8 µg/mL (≈ 20.2 µM)
Escherichia coli 311
  MIC: 4 µg/mL (≈ 10.1 µM)
[7]; Klebsiella pneumoniae, W754, 18 h
  MIC: 8 µg/mL (≈ 20.2 µM)
[8]; Pseudomonas aeruginosa, UCS7613, 18 h
  MIC: > 128 µg/mL
Klebsiella pneumoniae AD; Klebsiella pneumoniae, 18 h
  MIC: 2 µg/mL (≈ 5.04 µM)
Serratia K101; Serratia, K101, 18 h
  MIC: > 128 µg/mL
[9]; Enterobacter cloacae, OSU752, 18 h
  MIC: > 128 µg/mL
Serratia marcens K77-1; Serratia, K771, 18 h
  MIC: > 128 µg/mL
[10]; [35]
  MIC: > 128 µg/mL
Enterococcus SM77-15; Enterococcus, SM7715, 18 h
  MIC: 32 µg/mL (≈ 80.7 µM)
[11]; Pseudomonas aeruginosa, 1244, 18 h
  MIC: > 128 µg/mL
[12]; Pseudomonas aeruginosa, PD05141, 18 h
  MIC: > 128 µg/mL
[13]; Enterobacter cloacae, MA751, 18 h
  MIC: > 128 µg/mL
Proteus morganii K72; K72, 18 h
  MIC: > 128 µg/mL
[14]; Staphylococcus aureus, Q741, 18 h
  MIC: ≤ 0.06 µg/mL
Escherichia coli OSU75-1
  MIC: 8 µg/mL (≈ 20.2 µM)
Serratia marcens QHC77-2; Serratia, QHC772, 18 h
  MIC: > 128 µg/mL

## Nn1c(SCC2=C(C(=O)O)N3C(=O)C(NC(=O)Cc4cccs4)[C@H]3SC2)nnc1-n1cccn1 (stereo partly shown) [Compound IV, 7[2-(2-Thienyl)acetamido]-3-[4-amino-5-(1-pyrazolyl)-1,2,4-triazol-3-ylthiomethyl]-3-cephem-4-carboxylic acid]
[1]; [15]
  MIC: 1 µg/mL (≈ 1.93 µM)
[2]; [16]
  MIC: 2 µg/mL (≈ 3.86 µM)
Escherichia coli W75-1
  MIC: 8 µg/mL (≈ 15.4 µM)
Proteus rettgeri N76-1; [17]
  MIC: > 128 µg/mL
[3]; [18]
  MIC: 0.25 µg/mL (≈ 0.482 µM)
[4]; ESS2231, Escherichia coli ESS22-31, agar dilution, 35° C., 18 hours, nutrient agar
  MIC: ≤ 0.06 µg/mL
[5]; [20]
  MIC: 2 µg/mL (≈ 3.86 µM)
[6]; [21]
  MIC: > 128 µg/mL
Escherichia coli 311
  MIC: 4 µg/mL (≈ 7.71 µM)
[7]; [22]
  MIC: 16 µg/mL (≈ 30.9 µM)
[8]; [23]
  MIC: > 128 µg/mL
Klebsiella pneumoniae AD; [24]
  MIC: 4 µg/mL (≈ 7.71 µM)
Serratia K101; [25]
  MIC: > 128 µg/mL
[9]; [26]
  MIC: > 128 µg/mL
Serratia marcens K77-1; [27]
  MIC: > 128 µg/mL
[10]; [35]
  MIC: > 128 µg/mL
Enterococcus SM77-15; [28]
  MIC: 32 µg/mL (≈ 61.7 µM)
[11]; [29]
  MIC: > 128 µg/mL
[12]; [30]
  MIC: > 128 µg/mL
[13]; [31]
  MIC: > 128 µg/mL
Proteus morganii K72; [32]
  MIC: > 128 µg/mL
[14]; [33]
  MIC: ≤ 0.12 µg/mL
Escherichia coli OSU75-1
  MIC: 4 µg/mL (≈ 7.71 µM)
Serratia marcens QHC77-2; [34]
  MIC: > 128 µg/mL

Reference: patent publication US4336375A, “Cephalosporanic acid derivatives” (American Cyanamid Company, priority 1980, dated 1982)
